Assay results: ChEMBL document CHEMBL4414661, “Trikoramide A, a Prenylated Cyanobactin from the Marine Cyanobacterium Symploca hydnoides” (J Nat Prod, 2019)
Active and inactive are the calls of the source. The calls are words filed in the database; no cut-off is given here. Numbered stars: 1 amine (or outer) side, 2 acyl side, 3 side chain; on linkers, the order of the positions; unused ones are H or OH. Square brackets hold non-standard residues; d marks the D form. Peptide text beside a SMILES is read from it. X1 = CC(C)=CC[C@@]12C[C@@H](C(=O)[*:2])N([*:1])[C@@H]1Nc1ccccc12

Experiments:
Escherichia coli = assay: Antibacterial activity against Escherichia coli assessed as bacterial growth inhibition at 100 uM measured after 16 hrs by microplate reader assay; format: functional, organism-based
OCI-AML2 = assay: Cytotoxicity against human OCI-AML2 cells measured after 24 hrs by MTT assay; format: functional, cell-based; details: OCI-AML2, 24 h
MOLT-4 = assay: Cytotoxicity against human MOLT4 cells measured after 24 hrs by MTT assay; format: functional, cell-based; details: MOLT-4, 24 h
MCF7 = assay: Cytotoxicity against human MCF7 cells measured after 24 hrs by MTT assay; format: functional, cell-based; details: MCF7, 24 h
[1] = Inhibition of quorum sensing system in Pseudomonas aeruginosa PAO1 transfected with lasB-GFP at 10 uM by measuring reduction in fluorescence intensity up to 16 hrs by fluorescence assay relative to control
Klebsiella pneumoniae = assay: Antibacterial activity against Klebsiella pneumoniae assessed as bacterial growth inhibition at 100 uM measured after 16 hrs by microplate reader assay; format: functional, organism-based
Staphylococcus aureus = assay: Antibacterial activity against methicillin-resistant Staphylococcus aureus assessed as bacterial growth inhibition at 100 uM measured after 16 hrs by microplate reader assay; format: functional, organism-based

Q: What does the source list for `CC(C)=CC[C@@]12C[C@H]3C(=O)N[C@@H](CC(C)C)C(=O)N[C@@H](Cc4ccccc4)C(=O)N4CCC[C@H]4C(=O)N[C@@H](CC(C)C)C(=O)N4CCC[C@H]4C(=O)N[C@@H](CC(C)C)C(=O)N4CCC[C@H]4C(=O)N[C@@H](C(C)C)C(=O)N4CCC[C@H]4C(=O)N3[C@@H]1Nc1ccccc12` (cyclo(FPLPLPVP[X1]L))?
A: Activity (Escherichia coli): inactive; IC50 (OCI-AML2): 8.2 µM; IC50 (MOLT-4): 5.75 µM; IC50 (MCF7): 19 µM; inhibition [1]: 26%; Activity (Klebsiella pneumoniae): inactive; Activity (Staphylococcus aureus): inactive
